Test results from patent publication US7511077B2, “Diamine calcium channel blockers” (Neuromed Pharmaceuticals Ltd., priority 2005, dated 2009).
Read-outs that look alike come from different tables or passages of the source.

Legend:
[1] = test system: T-type over L-type channels; conditions: cited from earlier work
[2] = target: T1, rat brain N-type calcium channel subunits (α1B+α2δ+β1b cDNA subunits) (Rattus norvegicus, UniProt Q02294); assay: N-type calcium channel block, whole cell patch clamp in HEK 293 cells; assay type: cell-based; conditions: holding potential −80 mV to +10 mV
T1 construct: expressed in transfected cells; host or cells: HEK 293
T1 sequence (Q02294 whole entry): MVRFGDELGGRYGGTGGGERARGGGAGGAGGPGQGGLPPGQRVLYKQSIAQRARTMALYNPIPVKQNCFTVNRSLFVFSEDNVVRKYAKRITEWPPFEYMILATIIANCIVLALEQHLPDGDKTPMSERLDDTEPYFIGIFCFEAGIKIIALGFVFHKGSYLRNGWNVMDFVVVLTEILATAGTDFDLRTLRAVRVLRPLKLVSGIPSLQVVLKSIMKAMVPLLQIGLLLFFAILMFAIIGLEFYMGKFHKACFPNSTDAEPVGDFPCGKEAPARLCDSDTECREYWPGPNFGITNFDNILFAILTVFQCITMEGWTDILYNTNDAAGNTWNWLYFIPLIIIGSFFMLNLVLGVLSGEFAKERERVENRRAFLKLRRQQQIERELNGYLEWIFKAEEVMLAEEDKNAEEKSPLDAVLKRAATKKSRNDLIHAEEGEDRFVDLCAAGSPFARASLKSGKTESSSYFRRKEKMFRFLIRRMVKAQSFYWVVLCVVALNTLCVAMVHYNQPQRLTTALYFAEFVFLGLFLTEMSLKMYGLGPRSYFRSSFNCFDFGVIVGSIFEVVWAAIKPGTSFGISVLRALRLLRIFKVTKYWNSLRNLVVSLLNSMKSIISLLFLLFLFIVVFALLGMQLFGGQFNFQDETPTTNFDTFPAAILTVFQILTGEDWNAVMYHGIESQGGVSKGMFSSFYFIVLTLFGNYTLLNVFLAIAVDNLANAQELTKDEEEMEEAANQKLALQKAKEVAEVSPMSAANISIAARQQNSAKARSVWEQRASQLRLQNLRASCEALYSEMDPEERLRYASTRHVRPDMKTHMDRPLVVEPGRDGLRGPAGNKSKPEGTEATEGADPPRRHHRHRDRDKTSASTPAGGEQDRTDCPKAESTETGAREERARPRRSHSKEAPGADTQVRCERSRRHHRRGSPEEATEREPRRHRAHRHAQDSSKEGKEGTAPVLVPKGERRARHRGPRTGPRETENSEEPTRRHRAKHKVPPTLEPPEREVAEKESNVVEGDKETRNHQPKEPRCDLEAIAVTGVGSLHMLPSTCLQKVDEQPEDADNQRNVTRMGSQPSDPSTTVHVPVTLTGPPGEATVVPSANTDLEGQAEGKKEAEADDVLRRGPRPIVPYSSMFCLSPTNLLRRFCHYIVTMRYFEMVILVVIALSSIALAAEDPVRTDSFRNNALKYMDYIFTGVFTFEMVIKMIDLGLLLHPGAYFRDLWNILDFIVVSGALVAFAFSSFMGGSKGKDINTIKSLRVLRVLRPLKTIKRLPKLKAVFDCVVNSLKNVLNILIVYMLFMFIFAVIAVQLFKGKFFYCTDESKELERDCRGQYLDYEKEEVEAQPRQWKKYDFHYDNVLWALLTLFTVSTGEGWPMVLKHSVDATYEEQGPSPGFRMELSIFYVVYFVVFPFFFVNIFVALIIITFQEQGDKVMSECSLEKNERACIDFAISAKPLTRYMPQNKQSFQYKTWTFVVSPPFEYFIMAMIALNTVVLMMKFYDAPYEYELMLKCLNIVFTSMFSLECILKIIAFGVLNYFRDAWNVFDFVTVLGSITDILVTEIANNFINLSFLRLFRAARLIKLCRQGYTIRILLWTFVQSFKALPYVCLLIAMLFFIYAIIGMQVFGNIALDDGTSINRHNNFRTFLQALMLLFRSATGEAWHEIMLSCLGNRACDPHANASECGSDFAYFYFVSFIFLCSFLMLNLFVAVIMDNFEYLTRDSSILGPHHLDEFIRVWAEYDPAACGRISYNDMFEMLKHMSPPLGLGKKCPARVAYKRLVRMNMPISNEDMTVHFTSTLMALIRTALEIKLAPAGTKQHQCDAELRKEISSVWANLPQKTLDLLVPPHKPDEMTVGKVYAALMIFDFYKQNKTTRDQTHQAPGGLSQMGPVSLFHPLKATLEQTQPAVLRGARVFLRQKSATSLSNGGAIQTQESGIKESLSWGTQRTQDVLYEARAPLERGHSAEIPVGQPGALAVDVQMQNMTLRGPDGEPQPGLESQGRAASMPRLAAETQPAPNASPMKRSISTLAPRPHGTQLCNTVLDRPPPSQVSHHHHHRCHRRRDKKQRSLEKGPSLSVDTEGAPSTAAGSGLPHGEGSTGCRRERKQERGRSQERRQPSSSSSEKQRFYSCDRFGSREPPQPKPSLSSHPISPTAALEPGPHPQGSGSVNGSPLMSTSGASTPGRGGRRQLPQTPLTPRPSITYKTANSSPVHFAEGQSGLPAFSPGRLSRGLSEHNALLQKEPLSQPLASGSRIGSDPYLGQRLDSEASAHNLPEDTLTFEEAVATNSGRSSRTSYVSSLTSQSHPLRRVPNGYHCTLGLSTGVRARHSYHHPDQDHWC
Method: N-type calcium channel blocking activity was assayed in human embryonic kidney cells, HEK 293, stably transfected with the rat brain N-type calcium channel subunits (α1B+α2δ+β1b cDNA subunits). Alternatively, N-type calcium channels (α1B+α2δ+β1b cDNA subunits), L-type channels (α1C+α2δ+β1b cDNA subunits) and P/Q-type channels (α1A+α2δ+β1b cDNA subunits) were transiently expressed in HEK 293 cells. Briefly, cells were cultured in Dulbecco's modified eagle medium (DMEM) supplemented with 10% fetal bovine serum, 200 U/ml penicillin and 0.2 mg/ml streptomycin at 37° C. with 5% CO2. At 85% confluency cells were split with 0.25% trypsin/1 mM EDTA and plated at 10% confluency on glass coverslips. At 12 hours the medium was replaced and the cells transiently transfected using a standard calcium phosphate protocol and the appropriate calcium channel cDNA's. Fresh DMEM was supplied and the cells transferred to 28° C./5% CO2. Cells were incubated for 1 to 2 days prior to whole cell recording.
Whole cell patch clamp experiments were performed using an Axopatch 200B amplifier (Axon Instruments, Burlingame, Calif.) linked to a personal computer equipped with pCLAMP software. The external and internal recording solutions contained, respectively, 5 mM BaCl2, 10 mM MgCl2, 10 mM HEPES, 40 mM TEACl, 10 mM glucose, 87.5 mM CsCl (pH 7.2) and 108 mM CsMS, 4 mM MgCl2, 9 mM EGTA, 9 mM HEPES (pH 7.2). Currents were typically elicited from a holding potential of −80 mV to +10 mV using Clampex software (Axon Instruments). Typically, currents were first elicited with low frequency stimulation (0.067 Hz) and allowed to stabilize prior to application of the compounds. The compounds were then applied during the low frequency pulse trains for two to three minutes to assess tonic block, and subsequently the pulse frequency was increased to 0.2 Hz to assess frequency dependent block. Data were analyzed using Clampfit (Axon Instruments) and SigmaPlot 4.0 (Jandel Scientific).

[3] = target: T2, human α1G T-type channels (Homo sapiens, UniProt O43497); assay: T-type calcium channel block, patch clamp in HEK cell lines; assay type: cell-based
T2 construct: expressed in transfected cells; host or cells: HEK cell lines
T2 sequence (O43497 whole entry): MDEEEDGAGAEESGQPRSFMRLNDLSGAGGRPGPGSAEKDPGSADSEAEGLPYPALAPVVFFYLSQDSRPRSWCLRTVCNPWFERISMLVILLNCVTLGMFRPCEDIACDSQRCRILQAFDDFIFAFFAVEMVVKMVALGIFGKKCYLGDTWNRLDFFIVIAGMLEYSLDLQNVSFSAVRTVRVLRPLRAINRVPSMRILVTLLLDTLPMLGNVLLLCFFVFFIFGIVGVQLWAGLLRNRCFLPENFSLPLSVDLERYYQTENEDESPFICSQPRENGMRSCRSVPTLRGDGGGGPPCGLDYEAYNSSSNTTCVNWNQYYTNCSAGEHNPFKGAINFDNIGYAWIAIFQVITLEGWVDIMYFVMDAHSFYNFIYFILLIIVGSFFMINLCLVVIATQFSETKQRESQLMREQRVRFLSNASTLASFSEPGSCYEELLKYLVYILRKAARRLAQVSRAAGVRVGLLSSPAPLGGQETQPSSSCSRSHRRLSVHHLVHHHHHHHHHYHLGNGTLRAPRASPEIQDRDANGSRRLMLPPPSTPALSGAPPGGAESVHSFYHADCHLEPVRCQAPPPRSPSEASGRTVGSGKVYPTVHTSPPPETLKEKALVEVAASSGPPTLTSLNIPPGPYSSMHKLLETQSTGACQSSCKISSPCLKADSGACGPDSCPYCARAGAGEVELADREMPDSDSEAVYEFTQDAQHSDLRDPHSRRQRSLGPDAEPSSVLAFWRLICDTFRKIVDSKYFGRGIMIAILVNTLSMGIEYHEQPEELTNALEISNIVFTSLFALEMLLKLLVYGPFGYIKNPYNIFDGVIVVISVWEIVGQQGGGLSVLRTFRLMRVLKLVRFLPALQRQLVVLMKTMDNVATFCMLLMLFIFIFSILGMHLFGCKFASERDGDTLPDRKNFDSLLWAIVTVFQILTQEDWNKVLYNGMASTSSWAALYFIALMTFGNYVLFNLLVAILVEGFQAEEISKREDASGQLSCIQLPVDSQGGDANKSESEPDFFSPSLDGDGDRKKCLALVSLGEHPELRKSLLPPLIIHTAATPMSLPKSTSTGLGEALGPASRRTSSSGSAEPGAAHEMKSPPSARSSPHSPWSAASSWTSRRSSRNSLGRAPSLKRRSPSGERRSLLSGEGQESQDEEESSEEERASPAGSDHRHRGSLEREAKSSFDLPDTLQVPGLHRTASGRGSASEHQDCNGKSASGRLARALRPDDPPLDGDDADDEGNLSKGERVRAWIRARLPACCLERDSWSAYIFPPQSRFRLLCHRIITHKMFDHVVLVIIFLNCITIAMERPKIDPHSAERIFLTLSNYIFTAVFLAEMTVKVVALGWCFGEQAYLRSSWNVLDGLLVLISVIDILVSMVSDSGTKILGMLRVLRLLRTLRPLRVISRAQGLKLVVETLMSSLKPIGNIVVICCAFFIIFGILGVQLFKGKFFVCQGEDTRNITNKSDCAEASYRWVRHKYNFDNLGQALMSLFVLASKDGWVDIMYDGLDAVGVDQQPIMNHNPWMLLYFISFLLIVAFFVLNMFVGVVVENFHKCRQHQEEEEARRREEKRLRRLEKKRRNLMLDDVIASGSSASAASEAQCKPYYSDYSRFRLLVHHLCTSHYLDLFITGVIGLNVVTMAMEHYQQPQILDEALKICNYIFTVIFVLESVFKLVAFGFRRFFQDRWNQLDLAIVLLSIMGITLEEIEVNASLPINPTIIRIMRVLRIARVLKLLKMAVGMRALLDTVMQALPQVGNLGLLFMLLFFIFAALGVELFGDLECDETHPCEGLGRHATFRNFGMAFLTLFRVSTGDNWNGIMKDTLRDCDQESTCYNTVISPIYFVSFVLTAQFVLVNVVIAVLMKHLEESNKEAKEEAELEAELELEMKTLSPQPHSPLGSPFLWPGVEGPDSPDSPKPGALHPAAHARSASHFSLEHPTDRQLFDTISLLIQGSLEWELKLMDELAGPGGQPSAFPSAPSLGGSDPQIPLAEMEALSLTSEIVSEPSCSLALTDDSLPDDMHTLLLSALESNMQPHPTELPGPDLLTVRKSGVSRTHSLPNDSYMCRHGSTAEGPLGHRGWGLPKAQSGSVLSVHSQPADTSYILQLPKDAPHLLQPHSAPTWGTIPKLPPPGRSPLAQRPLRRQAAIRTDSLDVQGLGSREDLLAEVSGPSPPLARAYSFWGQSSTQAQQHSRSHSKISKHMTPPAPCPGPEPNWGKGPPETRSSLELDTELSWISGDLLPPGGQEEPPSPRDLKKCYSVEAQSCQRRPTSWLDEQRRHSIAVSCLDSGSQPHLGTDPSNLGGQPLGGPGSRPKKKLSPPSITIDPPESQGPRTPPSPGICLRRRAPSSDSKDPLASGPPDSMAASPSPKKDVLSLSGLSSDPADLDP
Method: Standard patch-clamp techniques were employed to identify blockers of T-type currents. Briefly, previously described HEK cell lines stably expressing human α1G T-type channels were used for all the recordings (passage #: 4-20, 37° C., 5% CO2). To obtain T-type currents, plastic dishes containing semi-confluent cells were positioned on the stage of a ZEISS AXIOVERT S100 microscope after replacing the culture medium with external solution (see below). Whole-cell patches were obtained using pipettes (borosilicate glass with filament, O.D.: 1.5 mm, I.D.: 0.86 mm, 10 cm length), fabricated on a SUTTER P-97 puller with resistance values of ˜5 MΩ (see below for internal solution).
T-type currents were reliably obtained by using two voltage protocols: • (1) “non-inactivating”, and (2) “inactivation”
In the non-inactivating protocol, the holding potential is set at −110 mV and with a pre-pulse at −100 mV for 1 second prior to the test pulse at −40 mV for 50 ms. In the inactivation protocol, the pre-pulse is at approximately −85 mV for 1 second, which inactivates about 15% of the T-type channels.
Test compounds were dissolved in external solution, 0.1-0.01% DMSO. After ˜10 min rest, they were applied by gravity close to the cell using a WPI microfil tubing. The “non-inactivated” pre-pulse was used to examine the resting block of a compound. The “inactivated” protocol was employed to study voltage-dependent block. However, the initial data shown below were mainly obtained using the non-inactivated protocol only. IC50 values are shown for various compounds of the invention in Table 5.

[4] = test system: Rings from Rat Mesenteric Artery maximally pre-contracted with PE; assay: Relaxation of pre-contracted rings from rat mesenteric artery; conditions: compound at 10^−5 M, rings maximally pre-contracted with PE at 10^−4 M, read-out: Mesenteric artery Max % relax
Method: Sprague-Dawley rats (350-400 g, Charles River Canada) were anaesthetized with sodium pentobarbital (60 mg/kg). The mesenteric arteries were removed and suspended in a tissue bath filled with Krebs-Henseleit solution aerated with 95% O2 and 5% CO2 at 37° C. The tissues were equilibrated for one hour prior to the construction of a concentration-response curve to phenylephrine (PE). Following recovery of the response to PE, a second curve to PE was constructed at 5 min after the addition of a calcium channel blocker (n=2-8, each from a separate rat) or the vehicle (50 μl of equimolar DMSO). After recovery, a third and fourth curve to PE were constructed after addition of a higher concentration of blocker or vehicle. The protocol was repeated using portal veins (n=4, each from a separate rat).

[5] = test system: Rings from Rat Portal Vein maximally pre-contracted with PE; assay: Relaxation of pre-contracted rings from rat portal vein; conditions: compound at 10^−5 M, rings maximally pre-contracted with PE at 10^−4 M, read-out: Portal vein Max % relax
[6] = Blood pressure reduction in SHR; assay type: in vivo
[7] = low frequency stimulation 0.067 Hz (tonic block), read-out: IC50 @ 0.067 Hz
[8] = pulse frequency 0.2 Hz (frequency dependent block), read-out: IC50 @ 0.2 Hz
[9] = non-inactivating protocol, pre-pulse −100 mV (resting block), read-out: IC50 @ −100 mV
[10] = −80 mV (inactivation protocol, voltage-dependent block), read-out: IC50 @ −80 mV

| SMILES | selective for T-type over L-type channels [1] | IC50 [2, 7] | IC50 [2, 8] | IC50 [3, 9] | IC50 [3, 10] | Emax at 10 µM [4] | Emax at 10 µM [5] | BP SHR at 4 hrs % reduction [6] |
| --- | --- | --- | --- | --- | --- | --- | --- | --- |
| COCC(=O)O[C@]1(CCN(C)CCCc2nc3ccccc3[nH]2)CCc2cc(F)ccc2[C@@H]1C(C)C [Mibefradil] | 10-30 fold | – | – | – | – | – | – | – |
| O=C(CCCCC(c1ccc(F)cc1)c1ccc(F)cc1)NCC#CCNC(=O)c1ccc(Cl)cc1 [Compound P28, N-{4-[6,6-Bis-(4-fluoro-phenyl)-hexanoylamino]-but-2-ynyl}-4-chloro-benzamide] | – | 360 nM | 360 nM | 72 nM | 29 nM | 61% | 25% | 13 n = 4% |
| O=C(CCCCC(c1ccc(F)cc1)c1ccc(F)cc1)NCC#CCNC(=O)c1ccc(F)cc1 [Compound P29, N-{4-[6,6-Bis-(4-fluoro-phenyl)-hexanoylamino]-but-2-ynyl}-4-fluoro-benzamide] | – | 290 nM | 290 nM | 696 nM | 101 nM | 63% | 51% | – |
